From patent US11759496B2, “Compounds and pharmaceutical use thereof in the treatment of cancer” (priority 2016, dated 2023)
Non-standard residues stand in square brackets, D forms with d. Residues, ends and D or L forms follow the SMILES beside them. No end group written: not given here. NMeR = CN[C@@H](CCCNC(=N)N)C(=O)O; Nle = CCCC[C@H](N)C(=O)O

Assays:
[1] = target: T1, CD47 (membrane preparation from MEC-1 cells) (Homo sapiens, UniProt Q08722); assay: Binding affinity by biolayer interferometry (Octet RED96) on biotinylated MEC-1 cell membrane preparation; settings: NPD = Non Pertinent Data; for Kd (μM): Table 3, average of two or more measurements; for Kd(μM)PR: Table 4, N-methyl peptides
T1 construct: MEC-1 cell membrane preparation were biotinylated with the EZ-Link NHS-PEG4-Biotin kit; endogenous in cells; host or cells: MEC-1 cells (membrane preparation)
T1 sequence (Q08722 19-323): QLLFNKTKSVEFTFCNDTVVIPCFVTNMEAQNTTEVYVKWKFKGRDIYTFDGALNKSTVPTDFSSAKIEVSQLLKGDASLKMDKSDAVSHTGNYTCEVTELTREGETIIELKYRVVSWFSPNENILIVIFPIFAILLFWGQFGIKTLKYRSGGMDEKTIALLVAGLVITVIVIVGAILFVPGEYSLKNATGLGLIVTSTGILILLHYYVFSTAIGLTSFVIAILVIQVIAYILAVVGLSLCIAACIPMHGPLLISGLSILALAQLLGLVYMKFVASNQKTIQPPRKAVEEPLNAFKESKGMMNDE
Description: The binding affinities of peptides for a membrane preparation from MEC-1 cells were measured by biolayer interferometry on an Octet RED96 System (Pall FortéBio Corp., Menlo Park, Calif.).
The binding affinities of peptides for a membrane preparation from MEC-1 cells were measured by biolayer interferometry on an Octet RED96 System (Pall FortéBio Corp., Menlo Park, Calif.). This system monitors interference of light reflected from two sources (an internal reflection surface and the liquid/solid interface of a fiber optic sensor) to measure the rate of binding of molecules to the biosensor surface.
MEC-1 cell membrane preparation were biotinylated with the EZ-Link NHS-PEG4-Biotin kit from Thermo-Scientific. Biotinylated membranes were then loaded onto SuperStreptavidin (SSA) biosensors (Pall FortéBio Corp.) at empirically determined concentrations.
In order to highlight the pharmacological properties of these peptides, a systematic SAR study by the development of a binding assay allowing to the assessment of the affinity of the 4N1K analogues to CD47 was initiated. […] An Ala-scan to identify the pharmacophores of 4N1K was implemented.
The binding affinities of peptides for a MEC-1 cells membrane preparation were measured by biolayer interferometry on an Octet RED96 System (Pall FortéBio Corp., Menlo Park, Calif.). This system monitors interference of light reflected from two sources (an internal reflection surface and the liquid/solid interface of a fiber optic sensor) to measure the rate of binding of molecules to the biosensor surface. MEC-1 cells membrane preparation is biotinylated with the EZ-Link NHS-PEG4-Biotin kit from Thermo-Scientific and excess biotin is removed using desalting column from Thermo-Scientific. Biotinylated membranes are then loaded onto SuperStreptavidin (SSA) biosensors (Pall FortéBio Corp.) at empirically determined concentrations. […] Typically, the biosensors were pre-equilibrated in PBS containing either biotinylated membranes or biocytine 100 μg/mL. Biosensors are then equilibrated in assay buffer for 10 min, brought to baseline in assay buffer for 60 sec. and transferred to wells containing peptide in dose-response (association for 120 sec. and dissociation for 300 sec.). The double reference with either membrane-loaded biosensors without any peptide dose-response or biocytine-loaded biosensors with each peptide dose-response were run in parallel for background signal double subtractions. Binding kinetics were calculated using the FortéBio Data Analysis v8.2 software.

MEC-1 cells = assay: MEC-1 cell death (PCD) after 2 h peptide treatment; type: cell-based; settings: for MEC-1 Cell Death (%) 2 h, [peptides] = 200 μM: Table 3, 200 μM peptide; for Cell Death (MEC-1, 2 h): Table 4
Description: Then the peptides structures were tested via NMR and X-ray. The peptides were also tested for their activity on MEC-1 and their KDs and Retention times on LCMS were determined.

| Kd(μM)PR [1] | Compound | MEC-1 Cell Death (%) 2 h, [peptides] = 200 μM (MEC-1 cells) | Cell Death (MEC-1, 2 h) (MEC-1 cells) | other results |
| --- | --- | --- | --- | --- |
| – | CSCC[C@H](NC(=O)[C@@H](NC(=O)[C@H](C)NC(=O)[C@H](Cc1ccc(O)cc1)NC(=O)[C@H](Cc1ccccc1)NC(=O)[C@H](CCCNC(=N)N)NC(=O)[C@H](N)CCCCN)C(C)C)C(=O)N[C@@H](Cc1c[nH]c2ccccc12)C(=O)N[C@@H](CCCCN)C(=O)N[C@H](CCCCN)C(=O)O [V5/A, kRFY(A)VMWKk] (H-[dK]RFYAVMWK[dK]-OH; N-terminus and C-terminus assumed) | 12% | – | Kd (μM) [1]: NPD |
| – | CSCC[C@H](NC(=O)[C@@H](NC(=O)[C@@H](NC(=O)[C@H](Cc1ccc(O)cc1)NC(=O)[C@H](Cc1ccccc1)NC(=O)[C@H](CCCNC(=N)N)NC(=O)[C@H](N)CCCCN)C(C)C)C(C)C)C(=O)N[C@@H](Cc1c[nH]c2ccccc12)C(=O)N[C@@H](C)C(=O)N[C@H](CCCCN)C(=O)O [K9/A, kRFYVVMW(A)k] (H-[dK]RFYVVMWA[dK]-OH) | 46% | – | – |
| – | CC(C)[C@H](NC(=O)[C@H](Cc1ccc(O)cc1)NC(=O)[C@H](Cc1ccccc1)NC(=O)[C@H](CCCNC(=N)N)NC(=O)[C@H](N)CCCCN)C(=O)N[C@H](C(=O)N[C@@H](C)C(=O)N[C@@H](Cc1c[nH]c2ccccc12)C(=O)N[C@@H](CCCCN)C(=O)N[C@H](CCCCN)C(=O)O)C(C)C [M7/A, kRFYVV(A)WKk] (H-[dK]RFYVVAWK[dK]-OH; N-terminus and C-terminus assumed) | 6% | – | – |
| NPD | CSCC[C@H](NC(=O)[C@@H](NC(=O)[C@H](C(C)C)N(C)C(=O)[C@H](Cc1ccc(O)cc1)NC(=O)[C@H](Cc1ccccc1)NC(=O)[C@H](CCCNC(=N)N)NC(=O)[C@H](N)CCCCN)C(C)C)C(=O)N[C@@H](Cc1c[nH]c2ccccc12)C(=O)N[C@@H](CCCCN)C(=O)N[C@H](CCCCN)C(=O)O [PKT8, H-(D)K R F Y ψ(CONMe)V V M W K (D)K-OH] | – | 0% | – |
| NPD | CSCC[C@H](NC(=O)[C@@H](NC(=O)[C@@H](NC(=O)[C@H](Cc1ccc(O)cc1)NC(=O)[C@H](Cc1ccccc1)N(C)C(=O)[C@H](CCCNC(=N)N)NC(=O)[C@H](N)CCCCN)C(C)C)C(C)C)C(=O)N[C@@H](Cc1c[nH]c2ccccc12)C(=O)N[C@@H](CCCCN)C(=O)N[C@H](CCCCN)C(=O)O [PKT10, H-(D)K R ψ(CONMe)F Y V V M W K (D)K-OH] | – | 0% | – |
| NPD | CSCC[C@H](NC(=O)[C@H](C(C)C)N(C)C(=O)[C@@H](NC(=O)[C@H](Cc1ccc(O)cc1)NC(=O)[C@H](Cc1ccccc1)NC(=O)[C@H](CCCNC(=N)N)NC(=O)[C@H](N)CCCCN)C(C)C)C(=O)N[C@@H](Cc1c[nH]c2ccccc12)C(=O)N[C@@H](CCCCN)C(=O)N[C@H](CCCCN)C(=O)O [PKT7, H-(D)K R F Y V ψ(CONMe)V M W K (D)K-OH] | – | 0% | – |
| – | CSCC[C@H](NC(=O)[C@@H](NC(=O)[C@@H](NC(=O)[C@H](Cc1ccc(O)cc1)NC(=O)[C@H](C)NC(=O)[C@H](CCCNC(=N)N)NC(=O)[C@H](N)CCCCN)C(C)C)C(C)C)C(=O)N[C@@H](Cc1c[nH]c2ccccc12)C(=O)N[C@@H](CCCCN)C(=O)N[C@H](CCCCN)C(=O)O [F3/A, kR(A)YVVMWKk] (H-[dK]RAYVVMWK[dK]-OH; N-terminus and C-terminus assumed) | 6% | – | Kd (μM) [1]: NPD |
| – | kRF(A)VVMWKk ([dK]RFAVVMWK[dK]) [Y4/A] | 0% | – | Kd (μM) [1]: NPD |
| – | CCCC[C@H](NC(=O)[C@@H](NC(=O)[C@@H](NC(=O)[C@H](Cc1ccc(O)cc1)NC(=O)[C@H](Cc1ccccc1)NC(=O)[C@H](CCCNC(=N)N)NC(=O)[C@H](N)CCCCN)C(C)C)C(C)C)C(=O)N[C@@H](Cc1c[nH]c2ccccc12)C(=O)N[C@@H](CCCCN)C(=O)N[C@H](CCCCN)C(=O)O [M/Nle, kRFYVV(Nle)WKk] (H-[dK]RFYVV[Nle]WK[dK]-OH) | 47% | – | – |
| – | H-(D)K ψ(CONMe)R F Y VV I W K (D)K-OH [PKT18] | – | 45% | – |
| NPD | CSCC[C@H](NC(=O)[C@@H](NC(=O)[C@@H](NC(=O)[C@H](Cc1ccc(O)cc1)N(C)C(=O)[C@H](Cc1ccccc1)NC(=O)[C@H](CCCNC(=N)N)NC(=O)[C@H](N)CCCCN)C(C)C)C(C)C)C(=O)N[C@@H](Cc1c[nH]c2ccccc12)C(=O)N[C@@H](CCCCN)C(=O)N[C@H](CCCCN)C(=O)O [PKT9, H-(D)K R F ψ(CONMe)Y V V M W K (D)K-OH] | – | 0% | – |
| – | CSCC[C@H](NC(=O)[C@@H](NC(=O)[C@@H](NC(=O)[C@H](Cc1ccc(O)cc1)NC(=O)[C@H](Cc1ccccc1)NC(=O)[C@H](CCCNC(=N)N)N(C)C(=O)[C@H](N)CCCCN)C(C)C)C(C)C)C(=O)N[C@@H](Cc1c[nH]c2ccccc12)C(=O)N(C)[C@@H](CCCCN)C(=O)N[C@H](CCCCN)C(=O)O [PKT15, H-(D)K ψ(CONMe)R F Y V V M W ψ(CONMe)K (D)K-OH] | – | 10% | – |
| NPD | CSCC[C@H](NC(=O)[C@@H](NC(=O)[C@@H](NC(=O)[C@H](Cc1ccc(O)cc1)NC(=O)[C@H](Cc1ccccc1)NC(=O)[C@H](CCCNC(=N)N)NC(=O)[C@H](N)CCCCN)C(C)C)C(C)C)C(=O)N(C)[C@@H](Cc1c[nH]c2ccccc12)C(=O)N[C@@H](CCCCN)C(=O)N[C@H](CCCCN)C(=O)O [PKT12, H-(D)K R F Y V V M ψ(CONMe)W K (D)K-OH] | – | 0% | – |
| – | CSCC[C@H](NC(=O)[C@@H](NC(=O)[C@@H](NC(=O)[C@H](Cc1ccc(O)cc1)NC(=O)[C@H](Cc1ccccc1)NC(=O)[C@H](CCCNC(=N)N)N(C)C(=O)[C@H](N)CCCCN)C(C)C)C(C)C)C(=O)N[C@@H](Cc1c[nH]c2ccccc12)C(=O)N[C@@H](CCCCN)C(=O)N[C@H](CCCCN)C(=O)O [PKT11, H-(D)K ψ(CONMe)R F Y V V M W K (D)K-OH] | – | 60% | – |
| – | CSCC[C@H](NC(=O)[C@@H](NC(=O)[C@@H](NC(=O)[C@H](Cc1ccc(O)cc1)NC(=O)[C@H](Cc1ccccc1)NC(=O)[C@H](CCCNC(=N)N)NC(=O)[C@H](CCCCN)NC(C)=O)C(C)C)C(C)C)C(=O)N[C@@H](Cc1c[nH]c2ccccc12)C(=O)N[C@@H](CCCCN)C(=O)N[C@@H](CCCCN)C(N)=O [compound 2] (Ac-KRFYVVMWKK-NH2) | – | – | MEC-1 Cell Death (%) 2 h (MEC-1 cells; Table 2, NPD = Non Pertinent Data): 30% |
| – | CC(C)C[C@H](NC(=O)[C@@H](NC(=O)[C@@H](NC(=O)[C@H](Cc1ccc(O)cc1)NC(=O)[C@H](Cc1ccccc1)NC(=O)[C@H](CCCNC(=N)N)N(C)C(=O)[C@H](N)CCCCN)C(C)C)C(C)C)C(=O)N[C@@H](Cc1c[nH]c2ccccc12)C(=O)N[C@@H](CCCCN)C(=O)N[C@H](CCCCN)C(=O)O [PKT17, H-(D)K ψ(CONMe)R F Y V V L W K (D)K-OH] (H-[dK][NMeR]FYVVLWK[dK]-OH) | – | 30% | – |
| – | CSCC[C@H](NC(=O)[C@@H](NC(=O)[C@@H](NC(=O)[C@H](Cc1ccc(O)cc1)NC(=O)[C@H](Cc1ccccc1)NC(=O)[C@H](C)NC(=O)[C@H](N)CCCCN)C(C)C)C(C)C)C(=O)N[C@@H](Cc1c[nH]c2ccccc12)C(=O)N[C@@H](CCCCN)C(=O)N[C@H](CCCCN)C(=O)O [R2/A, k(A)FYVVMWKk] (H-[dK]AFYVVMWK[dK]-OH) | 44% | – | – |

| Compound | Kd(μM)PR [1] | MEC-1 Cell Death (%) 2 h, [peptides] = 200 μM (MEC-1 cells) | Cell Death (MEC-1, 2 h) (MEC-1 cells) | other results |
| --- | --- | --- | --- | --- |
| H-(D)K R F Y V V M W ψ(CONMe)K (D)K-OH (KRFYVVMWKK; D-residues, N-methyl amide bond; (1)..(1) Amino acid at position 1 is in the D-configuration; (9)..(9) Amino acid at position 9 is backbone-N- …ON of the Lysine; (10)..(10) Amino acid at position 10 is in the D-configuration) [PKT14] | NPD | – | 35% | – |
| H-(D)K R F Y V V ψ(CONMe)M W K (D)K-OH (KRFYVVMWKK; D-residues, N-methyl amide bond; (1)..(1) Amino acid at position 1 is in the D-configuration; (7)..(7) Amino acid at position 7 is backbone-N- …ON of the Methionine; (10)..(10) Amino acid at position 10 is in the D-configuration) [PKT13] | NPD | – | 0% | – |
